Experimental data from patent publication US11905268B2, “Anthranilic acid derivatives and their use in the treatment of human cancers” (UNIVERSITY OF CENTRAL FLORIDA RESEARCH FOUNDATION, INC., priority 2018, dated 2024).
Where two headings read alike, the source gives them in different places.

Columns and labels:
L3.6pl cells [1] = assay: cells; assay type: cell-based; settings: for IC50: Homo sapiens, L3.6pl; for L3.6pl MTC: maximum tolerated concentration where cells are >90% viable
CHO cells [2] = assay: Cytotoxicity screen in CHO cells; settings: for IC50 at 48 h: Chinese hamster, CHO K1 cells; for tox (DFMO Assay) / Tox (Ant44): toxic above the stated concentration, CHO cells; for tox (DFMO Assay): listed with DFMO assay; for Tox (Ant44): listed with Ant44 assay
Protocol: CHO K1 cells were grown in growth medium to 70% confluency and washed in PBS and trypsinized. […] Cells were spun at 100×g for 1 minute and incubated at 37° C. in a humidified CO2 incubator for 24 hours. […] Cellular ATP content was then assayed by adding 3 uL of ATPLite with a Beckman BioRAPTR FRD dispenser and incubated for 10 minutes at room temperature. Plates were spun at 200×g for 1 minute and read on a Perkin Elmer Viewlux multimode plate reader using luminescence mode. This assay was used for testing dose-response of dry powders.
CHO K1 cells were grown in growth medium to 70% confluency and washed in PBS and trypsinized. Cells were plated in assay medium at 10000 cells/mL for 200 cells per well using a Thermo Multidrop Combi in 20 uL into a white Greiner plate. Cells were spun at 100×g for 1 minute and incubated at 37° C. in a humidified CO2 incubator for 24 hours. […] This was followed by adding by 10 μL of assay medium to all wells with a Beckman BioRAPTR FRD dispenser. The plates were spun at 200×g for 1 minute and incubated at 37° C. in a humidified 5% CO2 incubator for 48 hours. Cellular ATP content was then assayed by adding 20 μL of ATPLite with a Beckman BioRAPTR FRD dispenser and incubated for 10 min at room temperature. Plates were spun at 200×g for 1 minute and read on a Perkin Elmer Envision for multimode plate reader using luminescence mode. Duplicates were run for each compound concentration, and the curves represent the average of the duplicates as percent viability.
The final compound concentration was either 20 μM or 10 μg/mL (depending upon the compound source). A successful PTI in Assay 1 would block the uptake of the toxic Ant44 probe and rescue the cells back to >90% relative growth vs an untreated control. It was critical to also evaluate the toxicity of the PTI by itself as a toxic PTI would give a false negative in Assay1 (and a false positive in Assay 2). […] Assay 2 then evaluated the ability of the compound to inhibit the uptake of a rescuing dose of Spermidine (Spd, 1 μM) into DFMO-treated CHO cells.

L3.6pl cells [3] = assay: DFMO/Spd rescue assay in L3.6pl cells; assay type: cell-based, human
Protocol: In another example in the DFMO spermidine (Spd) rescue assay an EC38=8 means that the PTI molecule at 8 μM was able to block 38% of the entry of spermidine into DFMO treated L3.6 pl cells after 72 h incubation time at 37° C. Another explanation, is that the PTI was able to disrupt […] of the intracellular trafficking of Spd that leads to cell rescue. […] Since both Ant44 and Spermidine are polyamine-based systems, cells likely use one mode of the polyamine transport (basal or obligate) in each assay.
The higher EC value denotes the compound is giving a relative % growth of L3.6 pl cells consistent with inhibiting either Ant44 uptake or blocking the uptake of the rescuing dose of spermidine. Alternatively these compounds may disrupting the intracellular trafficking of Ant44 and spermidine so they cannot reach their intended intracellular target.

CHO cells [4] = assay: Ant44 rescue assay in CHO cells (Assay 1); assay type: cell-based, Chinese hamster; settings: for IC50 / EC50: Cricetulus griseus; for IC50: Table 7, read-out: SAR IC50 Ant44 assay; for Active in Ant44 assay?: Table 2, in CHO
Protocol: CHO K1 cells were grown in growth medium (RPMI+10% FBS+1×P/S+1% l-glutamine) to 70% confluency, washed in PBS and trypsinized. Cells were plated in assay medium (serum free RPMI+2% FBS+1×l-glutamine+1×P/S+[…] aminoguanidine) at 50000 cells/mL for 200 cells per well in 4 ul using a Thermo Multidrop Combi into a 1536-well white Aurora plate.
Ant44 is a cytotoxic polyamine, i.e., N^1-(9-anthracenyl)-homospermidine. A non-toxic PTI compound would block entry or intracellular trafficking of the Ant44 toxin and rescue the cells back to high viability. Therefore, this screen tested for compounds which rescued cells from Ant44 toxicity. […] This was followed by adding 10 uL of 10 uM Ant44 (FAC 2 uM) in assay medium with a Beckman BioRAPTR FRD dispenser or 10 uL of cells added in assay medium (positive control).

[5] = tested on: DFMO treated Chinese hamster ovary (CHO) cells; assay: DFMO/spermidine rescue assay in CHO cells (Assay 2); assay type: cell-based; settings: for EC50 / IC50: Cricetulus griseus; for EC50: Table 2
Protocol: In the reconfirmation assay compounds were run in quadruplicate. […] A PTI compound is expected to block the entry or disrupt the intracellular trafficking of spermidine and inhibit the ability of spermidine to rescue the growth or viability of DFMO treated cells.
DFMO/Spermidine assay Here cells were treated with an inhibitor of polyamine biosynthesis (DFMO) and rescued back to high viability by the presence of exogenous polyamine (spermidine). Putative PTI compounds were screened for their ability to block the entry or intracellular trafficking of exogenous spermidine (or otherwise disrupt the intracellular trafficking of spermidine) by measuring cell viability in the presence of DFMO+spermidine+PTI compound. […] This was followed by adding 10 μL of […] and 5 μM spermidine (FAC 5 mM DFMO and 1 μM spermidine) in assay medium with a Beckman BioRAPTR FRD dispenser or 10 μL of 5 mM DFMO added in assay medium (positive control). […] A PTI compound is expected to block the entry or disrupt the intracellular trafficking of spermidine and inhibit the ability of spermidine to rescue the growth or viability of DFMO treated cells Cytotoxicity

[6] = read-out: IC50 values (toxicity profile)
[7] = relative growth after 72 h, read-out: L3.6pl IC50
[8] = CHO, Table 4B, read-out: DFMO/CHO IC50
[9] = CHO, Table 7, read-out: SAR IC50 DFMO assay
[10] = Table 1 HTS top hits, CHO cells, read-out: Ant44 EC50
[11] = Table 1 HTS top hits, CHO cells, read-out: DFMO Assay IC50

Row | SMILES | IC50 at 48 h (CHO cells [2]) | IC50 (CHO cells [4]; CHO) | IC50 [5, 9] | tox (DFMO Assay) (CHO cells [2]) | EC50 (CHO cells [4]; [10]) | IC50 [5, 11] | further results
1 | COc1ccccc1C(=O)Nc1ccc(N2CCN(c3ccccc3)CC2)cc1C(=O)O [ChemDiv F687-0884] | – | – | – | – | – | – | IC50 (L3.6pl cells [1]; [6]): > 38 µM; IC50 (L3.6pl cells [1]; [7]): 46.3 ± 0.02 µM; L3.6pl MTC (L3.6pl cells [1]): 9 µM
2 | COc1ccccc1C(=O)Nc1ccc(N2CCN(Cc3ccccn3)CC2)cc1C(=O)O [SBI-0814421, 2-(2-methoxybenzamido)-5-(4-(pyridin-2-ylmethyl)piperazin-1-yl)benzoic acid] | > 40 µM | > 40 µM | 10 µM | – | – | – | CHO MTD (CHO cells [2]; hamster): >20 µM; EC50 (L3.6pl cells [3]; Homo sapiens, Table 2, DFMO rescue in L3.6pl): > 10 µM; EC50 (L3.6pl cells [3]; Table 4B, DFMO-spermidine rescue): > 10 µM; Active in Ant44 assay? (CHO cells [4]): No in CHO; activity in DFMO assay ([5]; CHO cells): some level of activity; EC50 ([5]; CHO): 20 µM; IC50 [5, 8]: 9.5 µM; L3.6pl MTD (L3.6pl cells [1]; Table 2): 10 µM; L3.6pl MTD (L3.6pl cells [1]; Table 4B): (10) μM
3 | COc1ccccc1C(=O)Nc1ccc(N2CCN(c3ccccc3OC)CC2)cc1C(=O)O [ChemDiv F687-0882] | – | – | – | – | – | – | IC50 (L3.6pl cells [1]; [6]): > 38 µM; IC50 (L3.6pl cells [1]; [7]): > 50 µM; L3.6pl MTC (L3.6pl cells [1]): 9 µM
4 | COc1ccc(C(=O)Nc2ccc(N3CCN(c4cc(Cl)ccc4C)CC3)cc2C(=O)O)cc1 [SBI-0754479, 5-(4-(5-chloro-2-methylphenyl)piperazin-1-yl)-2-(4-methoxybenzamido)benzoic acid] | 13 µM | > 40 µM | 8 µM | – | – | – | IC50 (L3.6pl cells [1]; [7]): 16.8 ± 0.1 µM; L3.6pl MTC (L3.6pl cells [1]): 8 µM
5 | COc1ccc(CC(=O)Nc2ccc(N3CCN(c4cc(Cl)ccc4C)CC3)cc2C(=O)O)cc1 [SBI-0754480] | 24 µM | 32 µM | – | > 20 µM | 31 µM | 5 to 10 µM | –
6 | COc1ccccc1C(=O)Nc1ccc(N2CCN(Cc3ccccc3)CC2)cc1C(=O)O [SBI-0814414, 5-(4-benzylpiperazin-1-yl)-2-(2-methoxybenzamido)benzoic acid] | > 40 µM | > 40 µM | > 40 µM | – | – | – | –
7 | CCOc1ccccc1N1CCN(c2ccc(NC(=O)c3ccc(OC)cc3)c(C(=O)O)c2)CC1 [SBI-0800683] | 37 µM | > 40 µM | 20 µM | SBI- 0800683.0001 (IC50 ~20 μM, tox >20 μM) | 20 µM | ~20 µM | CHO MTD (CHO cells [2]; hamster): 20 µM; CHO MTD EC50 (CHO cells [2]; hamster): (37) μM; Tox (Ant44) (CHO cells [2]): SBI- 0800683.0001 (20 μM EC50) Tox >20 μM; EC50 (CHO cells [4]; CHO, Table 2, Active in Ant44 assay?, read-out: Ant44 assay EC50 in CHO): ~20 µM; Active in Ant44 assay? (CHO cells [4]): Yes; Ant44 IC50 (CHO cells [4]; Table 4B, CHO cells): trace; EC50 ([5]; CHO): ~20 µM; IC50 [5, 8]: 20 µM
8 | CCOC(=O)N1CCN(c2ccc(NC(=O)c3ccc(OC)cc3)c(C(=O)O)c2)CC1 [SBI-0800692] | 34 µM | > 40 µM | > 40 µM | SBI- 0800692.0001 (IC50 ~20, tox >20) μM | – | ~20 µM | Ant44 EC40 (CHO cells [4]; Table 1, CHO cells): SBI- 0800692.0001 (EC40 at 31) μM
9 | COc1ccccc1C(=O)Nc1ccc(N2CCN(c3ccccn3)CC2)cc1 [SBI-0814417, 2-methoxy-N-(4-(4-(pyridin-2-yl)piperazin-1-yl)phenyl)benzamide] | 14 µM | > 40 µM | > 40 µM | – | – | – | –
10 | COc1ccc(S(=O)(=O)Nc2ccc(N3CCN(c4cc(Cl)ccc4C)CC3)cc2C(=O)O)cc1 [SBI-0801326, 5-(4-(5-chloro-2-methylphenyl)piperazin-1-yl)-2-(4-methoxyphenylsulfonamido)benzoic acid] | > 40 µM | > 40 µM | > 40 µM | – | – | – | –
11 | COc1ccc(C(=O)Nc2ccc(N3CCN(c4cc(Cl)ccc4C)CC3)cc2C(=O)O)c(OC)c1 [SBI-0801324, 5-(4-(5-chloro-2-methylphenyl)piperazin-1-yl)-2-(2,4-dimethoxybenzamido)benzoic acid] | > 40 µM | > 40 µM | > 40 µM | Non tox | 31 µM | – | DFMO Assay IC40 ([5]; Table 1, CHO cells): 31 µM
12 | COc1ccccc1C(=O)Nc1ccc(N2CCN(c3cccc(C)c3C)CC2)cc1C(=O)O [SBI-0800676] | 28 µM | 2 µM | 23 µM | SBI- 0800676.0001 (IC50 ~15, tox >15) μM | 20 µM | ~15 µM | Tox (Ant44) (CHO cells [2]): SBI- 0800676.0001 (20 EC50) Tox >20 μM
13 | COc1ccccc1C(=O)Nc1ccc(CN2CCN(c3ccccn3)CC2)cc1C(=O)O [SBI-0814423, 2-(2-Methoxybenzamido)-5-((4-(pyridin-2-yl)piperazin-1-yl)methyl)benzoic acid] | > 40 µM | > 40 µM | > 40 µM | – | – | – | –
